Laboratory results as given in ChEMBL document CHEMBL3885881, “DrugMatrix”.
Values joined by “and” are separate entries in the source; they are usually repeats but may differ in a detail not shown here. Equal values may be shown once.

Species on record: Rattus norvegicus
Assay: DrugMatrix - Regimen: Daily Repeat
Type: toxicity, organism-based, Sprague-Dawley
Design: regimen Daily Repeat, gender Male, age 6-8 weeks
Conditions: in vivo, po, route oral GAVAGE, vehicle .5 % CMC; for BASOPHIL / EOSINOPHIL / ERYTHROCYTE COUNT / HEMATOCRIT / HEMOGLOBIN / LEUKOCYTE COUNT / LYMPHOCYTE / MEAN CORPUSCULAR HEMOGLOBIN / MEAN CORPUSCULAR HEMOGLOBIN CONCENTRATION / MEAN CORPUSCULAR VOLUME / MONOCYTE / NEUTROPHIL / PLATELET COUNT / ABSOLUTE BASOPHIL / ABSOLUTE EOSINOPHIL / ABSOLUTE LYMPHOCYTE / ABSOLUTE MONOCYTE / ABSOLUTE SEGMENTED NEUTROPHIL: tissue Blood; for ALANINE AMINOTRANSFERASE / ALBUMIN / ALKALINE PHOSPHATASE / ASPARTATE AMINOTRANSFERASE / BLOOD UREA NITROGEN / CHLORIDE / CHOLESTEROL / CREATINE PHOSPHOKINASE / CREATININE / GLUCOSE / PHOSPHORUS / POTASSIUM / SODIUM / TOTAL BILIRUBIN / TOTAL PROTEIN / LACTATE DEHYDROGENASE / LIPASE / URIC ACID: tissue Plasma
[1] = 0 mg/kg, 72 h, dose level Control, time 3 day
[2] = 0 mg/kg, 120 h, dose level Control, time 5 day
[3] = 0 mg/kg, 2184 h, dose level Control, time 91 day
[4] = 0 mg/kg, […], dose level Control, time 28 day
[5] = 80 mg/kg, 120 h, dose level Low, time 5 day
[6] = 80 mg/kg, 2184 h, dose level Low, time 91 day

Q: Which results are given for `O=c1cc(-c2ccccc2)oc2ccc3ccccc3c12` [BETA-NAPHTHOFLAVONE]?
A: BASOPHIL [1]: 0.52%; EOSINOPHIL [1]: 0.48%; ERYTHROCYTE COUNT [1]: 6.68 x10E6/uL; HEMATOCRIT [1]: 43.07%; HEMOGLOBIN [1]: 13.48 G/DL; LEUKOCYTE COUNT [1]: 11.41 x10E3/uL; LYMPHOCYTE [1]: 80.78%; MEAN CORPUSCULAR HEMOGLOBIN [1]: 20.2 pg; MEAN CORPUSCULAR HEMOGLOBIN CONCENTRATION [1]: 31.32 G/DL; MEAN CORPUSCULAR VOLUME [1]: 64.45 fL; MONOCYTE [1]: 2.23%; NEUTROPHIL [1]: 14.73%; PLATELET COUNT [1]: 1225.83 x10E3/uL; ALANINE AMINOTRANSFERASE [1]: 44.5 u/L; ALBUMIN [1]: 3.62 G/DL; ALKALINE PHOSPHATASE [1]: 404.5 u/L; ASPARTATE AMINOTRANSFERASE [1]: 71.67 u/L; BLOOD UREA NITROGEN [1]: 15 mg/dL; CHLORIDE [1]: 103 MEQ/L; CHOLESTEROL [1]: 96.83 mg/dL; CREATINE PHOSPHOKINASE [1]: 236 u/L; CREATININE [1]: 0.43 mg/dL; GLUCOSE [1]: 186.83 mg/dL; PHOSPHORUS [1]: 12.67 mg/dL; POTASSIUM [1]: 7.1 MEQ/L; SODIUM [1]: 147.33 MEQ/L; TOTAL BILIRUBIN [1]: 0.52 mg/dL; TOTAL PROTEIN [1]: 6.18 G/DL; ABSOLUTE BASOPHIL [2]: 92 cells/µL; ABSOLUTE EOSINOPHIL [2]: 52 cells/µL; ABSOLUTE LYMPHOCYTE [2]: 6560 cells/µL; ABSOLUTE MONOCYTE [2]: 160 cells/µL; ABSOLUTE SEGMENTED NEUTROPHIL [2]: 1130 cells/µL; BASOPHIL [2]: 1.14% and 0.92%; EOSINOPHIL [2]: 0.68% and 0.43%; ERYTHROCYTE COUNT [2]: 7.51 x10E6/uL and 7.03 x10E6/uL; HEMATOCRIT [2]: 46.04% and 46.55%; HEMOGLOBIN [2]: 15.62 G/DL and 14.32 G/DL; LEUKOCYTE COUNT [2]: 8.03 x10E3/uL and 12.22 x10E3/uL; LYMPHOCYTE [2]: 81.54% and 82.65%; MEAN CORPUSCULAR HEMOGLOBIN [2]: 20.84 pg and 20.35 pg; MEAN CORPUSCULAR HEMOGLOBIN CONCENTRATION [2]: 33.94 G/DL and 30.77 G/DL; MEAN CORPUSCULAR VOLUME [2]: 61.42 fL and 66.28 fL; MONOCYTE [2]: 2% and 2.28%; NEUTROPHIL [2]: 14.24% and 12.73%; PLATELET COUNT [2]: 1427.2 x10E3/uL and 1268.67 x10E3/uL; ALANINE AMINOTRANSFERASE [2]: 35.6 u/L and 44.5 u/L; ALBUMIN [2]: 3.64 G/DL and 3.73 G/DL; ALKALINE PHOSPHATASE [2]: 233 u/L and 340.83 u/L; ASPARTATE AMINOTRANSFERASE [2]: 81 u/L and 66.5 u/L; BLOOD UREA NITROGEN [2]: 12 mg/dL and 13.33 mg/dL; CHLORIDE [2]: 109.4 MEQ/L and 102.17 MEQ/L; CHOLESTEROL [2]: 47.6 mg/dL and 82.17 mg/dL; CREATINE PHOSPHOKINASE [2]: 183.2 u/L and 146.67 u/L; CREATININE [2]: 0.4 mg/dL and 0.35 mg/dL; GLUCOSE [2]: 134.6 mg/dL and 186.17 mg/dL; LACTATE DEHYDROGENASE [2]: 89.4 u/L; LIPASE [2]: 17.2 u/L; PHOSPHORUS [2]: 13.02 mg/dL and 11.83 mg/dL; POTASSIUM [2]: 7 MEQ/L and 6.47 MEQ/L; SODIUM [2]: 149.6 MEQ/L and 148.83 MEQ/L; TOTAL PROTEIN [2]: 6.06 G/DL and 6.27 G/DL; URIC ACID [2]: 1.04 mg/dL; ABSOLUTE BASOPHIL [3]: 130 cells/µL; ABSOLUTE EOSINOPHIL [3]: 70 cells/µL; ABSOLUTE LYMPHOCYTE [3]: 8670 cells/µL; ABSOLUTE MONOCYTE [3]: 160 cells/µL; ABSOLUTE SEGMENTED NEUTROPHIL [3]: 1530 cells/µL; BASOPHIL [3]: 1.13%; EOSINOPHIL [3]: 0.66%; ERYTHROCYTE COUNT [3]: 9.13 x10E6/uL; HEMATOCRIT [3]: 48.47%; HEMOGLOBIN [3]: 16.56 G/DL; LEUKOCYTE COUNT [3]: 10.5 x10E3/uL; LYMPHOCYTE [3]: 81.63%; MEAN CORPUSCULAR HEMOGLOBIN [3]: 18.16 pg; MEAN CORPUSCULAR HEMOGLOBIN CONCENTRATION [3]: 34.14 G/DL; MEAN CORPUSCULAR VOLUME [3]: 53.14 fL; MONOCYTE [3]: 1.53%; NEUTROPHIL [3]: 14.71%; PLATELET COUNT [3]: 1280.22 x10E3/uL; ALANINE AMINOTRANSFERASE [3]: 28.89 u/L; ALBUMIN [3]: 3.69 G/DL; ALKALINE PHOSPHATASE [3]: 101.11 u/L; ASPARTATE AMINOTRANSFERASE [3]: 70.67 u/L; BLOOD UREA NITROGEN [3]: 16.78 mg/dL; CHLORIDE [3]: 104.56 MEQ/L; CHOLESTEROL [3]: 58.78 mg/dL; CREATINE PHOSPHOKINASE [3]: 91.22 u/L; CREATININE [3]: 0.61 mg/dL; GLUCOSE [3]: 142.33 mg/dL; LACTATE DEHYDROGENASE [3]: 81.67 u/L; LIPASE [3]: 13 u/L; PHOSPHORUS [3]: 7.54 mg/dL; POTASSIUM [3]: 6.27 MEQ/L; SODIUM [3]: 149.89 MEQ/L; TOTAL BILIRUBIN [3]: 0.19 mg/dL; TOTAL PROTEIN [3]: 7.12 G/DL; URIC ACID [3]: 0.97 mg/dL; ABSOLUTE BASOPHIL [4]: 150 cells/µL; ABSOLUTE EOSINOPHIL [4]: 54 cells/µL; ABSOLUTE LYMPHOCYTE [4]: 8890 cells/µL; ABSOLUTE MONOCYTE [4]: 190 cells/µL; ABSOLUTE SEGMENTED NEUTROPHIL [4]: 2250 cells/µL; BASOPHIL [4]: 1.26%; EOSINOPHIL [4]: 0.46%; ERYTHROCYTE COUNT [4]: 8.34 x10E6/uL; HEMATOCRIT [4]: 48.66%; HEMOGLOBIN [4]: 16.04 G/DL; LEUKOCYTE COUNT [4]: 11.58 x10E3/uL; LYMPHOCYTE [4]: 76.74%; MEAN CORPUSCULAR HEMOGLOBIN [4]: 19.2 pg; MEAN CORPUSCULAR HEMOGLOBIN CONCENTRATION [4]: 32.92 G/DL; MEAN CORPUSCULAR VOLUME [4]: 58.32 fL; MONOCYTE [4]: 1.76%; NEUTROPHIL [4]: 19.44%; PLATELET COUNT [4]: 1282.6 x10E3/uL; ALANINE AMINOTRANSFERASE [4]: 27 u/L; ALBUMIN [4]: 3.68 G/DL; ALKALINE PHOSPHATASE [4]: 146.2 u/L; ASPARTATE AMINOTRANSFERASE [4]: 66.6 u/L; BLOOD UREA NITROGEN [4]: 12.4 mg/dL; CHLORIDE [4]: 104.6 MEQ/L; CHOLESTEROL [4]: 59.6 mg/dL; CREATINE PHOSPHOKINASE [4]: 121.8 u/L; CREATININE [4]: 0.6 mg/dL; GLUCOSE [4]: 143 mg/dL; LACTATE DEHYDROGENASE [4]: 87.8 u/L; LIPASE [4]: 17.4 u/L; PHOSPHORUS [4]: 8.68 mg/dL; POTASSIUM [4]: 6.02 MEQ/L; SODIUM [4]: 152.8 MEQ/L; TOTAL BILIRUBIN [4]: 0.26 mg/dL; TOTAL PROTEIN [4]: 6.92 G/DL; URIC ACID [4]: 0.52 mg/dL; ABSOLUTE BASOPHIL [5]: 80 cells/µL; ABSOLUTE EOSINOPHIL [5]: 62 cells/µL; ABSOLUTE LYMPHOCYTE [5]: 9510 cells/µL; ABSOLUTE MONOCYTE [5]: 180 cells/µL; ABSOLUTE SEGMENTED NEUTROPHIL [5]: 1430 cells/µL; BASOPHIL [5]: 0.74%; EOSINOPHIL [5]: 0.56%; ERYTHROCYTE COUNT [5]: 7.55 x10E6/uL; HEMATOCRIT [5]: 45.54%; HEMOGLOBIN [5]: 15.6 G/DL; LEUKOCYTE COUNT [5]: 11.31 x10E3/uL; LYMPHOCYTE [5]: 84.24%; MEAN CORPUSCULAR HEMOGLOBIN [5]: 20.68 pg; MEAN CORPUSCULAR HEMOGLOBIN CONCENTRATION [5]: 34.26 G/DL; MEAN CORPUSCULAR VOLUME [5]: 60.36 fL; MONOCYTE [5]: 1.58%; NEUTROPHIL [5]: 12.46%; PLATELET COUNT [5]: 1331 x10E3/uL; ALANINE AMINOTRANSFERASE [5]: 31.8 u/L; ALBUMIN [5]: 3.5 G/DL; ALKALINE PHOSPHATASE [5]: 221.2 u/L; ASPARTATE AMINOTRANSFERASE [5]: 79.4 u/L; BLOOD UREA NITROGEN [5]: 10.4 mg/dL; CHLORIDE [5]: 108.8 MEQ/L; CHOLESTEROL [5]: 59.4 mg/dL; CREATINE PHOSPHOKINASE [5]: 166.8 u/L; CREATININE [5]: 0.52 mg/dL; GLUCOSE [5]: 110.6 mg/dL; LACTATE DEHYDROGENASE [5]: 103.8 u/L; LIPASE [5]: 24.4 u/L; PHOSPHORUS [5]: 11.66 mg/dL; POTASSIUM [5]: 6.5 MEQ/L; SODIUM [5]: 151 MEQ/L; TOTAL BILIRUBIN [5]: 0.2 mg/dL; TOTAL PROTEIN [5]: 6.1 G/DL; URIC ACID [5]: 0.72 mg/dL; ABSOLUTE BASOPHIL [6]: 410 cells/µL; ABSOLUTE EOSINOPHIL [6]: 110 cells/µL; ABSOLUTE LYMPHOCYTE [6]: 11200 cells/µL; ABSOLUTE MONOCYTE [6]: 290 cells/µL; ABSOLUTE SEGMENTED NEUTROPHIL [6]: 3040 cells/µL; BASOPHIL [6]: 2.71%
